From PubChem BioAssay AID192 (DTP/NCI, 2004)
“And” between values parts separate entries of the source, which are not always exact repeats. Equal values may be shown once. Toxic doses and inconclusive results are not listed. Peptide text beside a SMILES is read from it.

Test system: BDF1 mice, B16 melanoma ip, median survival T/C
Test: NCI In Vivo Anticancer Drug Screen. Data for tumor model B16 Melanoma (intraperitoneal) in B6D2F1 (BDF1) mice
Conditions: endpoint: median survival time, higher = longer survival
Outline: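 The ratio T/C compares compound-treated mice with vehicle-treated controls, using survival or tumor size as the endpoint in a transplantable tumor model.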

[1] = dose: 6.25 mg/kg/injection, schedule: Q01DX009 (ip), vehicle: saline
[2] = dose: 12.5 mg/kg/injection, schedule: Q01DX009 (ip), vehicle: saline
[3] = dose: 50.0 mg/kg/injection, schedule: Q01DX009 (ip), vehicle: saline
[4] = dose: 100.0 mg/kg/injection, schedule: Q01DX009 (ip), vehicle: saline
[5] = dose: 50.0 mg/kg/injection, schedule: Q01DX009 (ip), vehicle: gum acacia
[6] = dose: 100.0 mg/kg/injection, schedule: Q01DX009 (ip), vehicle: gum acacia
[7] = dose: 200.0 mg/kg/injection, schedule: Q01DX009 (ip), vehicle: gum acacia
[8] = dose: 25.0 mg/kg/injection, schedule: Q01DX009 (ip), vehicle: Klucel (hydroxypropylcellulose) (HPC)
[9] = dose: 50.0 mg/kg/injection, schedule: Q01DX009 (ip), vehicle: Klucel (hydroxypropylcellulose) (HPC)
[10] = dose: 100.0 mg/kg/injection, schedule: Q01DX009 (ip), vehicle: Klucel (hydroxypropylcellulose) (HPC)
[11] = dose: 200.0 mg/kg/injection, schedule: Q01DX009 (ip), vehicle: Klucel (hydroxypropylcellulose) (HPC)
[12] = dose: 200.0 mg/kg/injection, schedule: Q04DX003 (ip), vehicle: Klucel (hydroxypropylcellulose) (HPC)
[13] = dose: 400.0 mg/kg/injection, schedule: Q01DX009 (ip), vehicle: Klucel (hydroxypropylcellulose) (HPC)
[14] = dose: 400.0 mg/kg/injection, schedule: Q04DX003 (ip), vehicle: Klucel (hydroxypropylcellulose) (HPC)
[15] = dose: 6.25 mg/kg/injection, schedule: Q01DX009 (ip), vehicle: saline with Tween-80
[16] = dose: 12.5 mg/kg/injection, schedule: Q01DX009 (ip), vehicle: saline with Tween-80
[17] = dose: 25.0 mg/kg/injection, schedule: Q01DX009 (ip), vehicle: saline with Tween-80
[18] = dose: 50.0 mg/kg/injection, schedule: Q01DX009 (ip), vehicle: saline with Tween-80
[19] = dose: 100.0 mg/kg/injection, schedule: Q04DX003 (ip), vehicle: Klucel (hydroxypropylcellulose) (HPC)
[20] = dose: 200.0 mg/kg/injection, schedule: Q01DX009 (ip), vehicle: saline with Tween-80

Structure (SMILES): CCCCCCCCCCCCCCP(I)(N(C)C)(N(C)C)N(C)C
- T/C (dose: 0.1 mg/kg/injection, schedule: Q01DX009 (ip), vehicle: saline with Tween-80): 90 % of control
- T/C (dose: 0.2 mg/kg/injection, schedule: Q01DX009 (ip), vehicle: saline with Tween-80): 94 % of control
- T/C (dose: 0.38 mg/kg/injection, schedule: Q01DX009 (ip), vehicle: saline with Tween-80): 88 % of control
- T/C (dose: 0.4 mg/kg/injection, schedule: Q01DX009 (ip), vehicle: saline with Tween-80): 93 % of control

Structure (SMILES): CNc1nc(N(C)C)nc(N(C)C)n1
- T/C [1]: 115 % of control
- T/C (dose: 6.25 mg/kg/injection, schedule: Q01DX009 (ip), vehicle: water): 96 % of control and 100 % of control
- T/C [2]: 111 % of control
- T/C (dose: 12.5 mg/kg/injection, schedule: Q01DX009 (ip), vehicle: water): 95 % of control and 102 % of control
- T/C (dose: 25.0 mg/kg/injection, schedule: Q01DX009 (ip), vehicle: saline): 111 % of control
- T/C (dose: 25.0 mg/kg/injection, schedule: Q01DX009 (ip), vehicle: water): 94 % of control
- T/C [3]: 116 % of control
- T/C (dose: 50.0 mg/kg/injection, schedule: Q01DX009 (ip), vehicle: water): 100 % of control and 118 % of control
- T/C [4]: 116 % of control
- T/C (dose: 100.0 mg/kg/injection, schedule: Q01DX009 (ip), vehicle: water): 100 % of control and 105 % of control

Structure (SMILES): F[B-](F)(F)F
- T/C (dose: 12.5 mg/kg/injection, schedule: Q01DX009 (ip), vehicle: gum acacia): 104 % of control
- T/C (dose: 25.0 mg/kg/injection, schedule: Q01DX009 (ip), vehicle: gum acacia): 114 % of control
- T/C [5]: 117 % of control
- T/C [6]: 105 % of control
- T/C [7]: 107 % of control

Structure (SMILES): CC(C)=CN1CCOCC1
- T/C [8]: 94 % of control
- T/C [9]: 100 % of control
- T/C [10]: 94 % of control

Structure (SMILES): O=[N+]([O-])O.[Cu+2].[NH-]CC[NH-].[NH-]CC[NH-]
- T/C (dose: 3.0 mg/kg/injection, schedule: Q01DX009 (ip), vehicle: saline): 116 % of control
- T/C (dose: 6.0 mg/kg/injection, schedule: Q01DX009 (ip), vehicle: saline): 122 % of control
- T/C (dose: 12.0 mg/kg/injection, schedule: Q01DX009 (ip), vehicle: saline): 102 % of control
- T/C [2]: 87 % of control

Structure (SMILES): CC(=O)CC(=O)Nc1cc(Cl)c(NC(=O)CC(C)=O)cc1Cl
- T/C (dose: 100.0 mg/kg/injection, schedule: Q04DX003 (ip), vehicle: saline with Tween-80): 88 % of control
- T/C (dose: 200.0 mg/kg/injection, schedule: Q04DX003 (ip), vehicle: saline with Tween-80): 98 % of control

Structure (SMILES): Cc1ccccc1N=Nc1c(N)ccc2ccccc12
- T/C [9]: 110 % of control
- T/C [10]: 106 % of control
- T/C [11]: 106 % of control

Structure (SMILES): Nc1ncnc(N)c1N=O
- T/C [3]: 118 % of control
- T/C [4]: 115 % of control

Structure (SMILES): COC(=O)/C=C/c1ccc(OC)cc1
- T/C [10]: 97 % of control
- T/C [11]: 97 % of control
- T/C [12]: 86 % of control
- T/C [13]: 97 % of control
- T/C [14]: 100 % of control

Structure (SMILES): CCCCCNC(=O)Nc1cccc(Cl)c1C
- T/C [15]: 91 % of control
- T/C [16]: 104 % of control
- T/C [17]: 100 % of control
- T/C [18]: 89 % of control and 103 % of control

Structure (SMILES): N#CCCc1ccc(O)cc1
- T/C [5]: 100 % of control
- T/C (dose: 50.0 mg/kg/injection, schedule: Q04DX003 (ip), vehicle: gum acacia): 100 % of control
- T/C [6]: 89 % of control
- T/C (dose: 100.0 mg/kg/injection, schedule: Q04DX003 (ip), vehicle: gum acacia): 106 % of control
- T/C [7]: 91 % of control
- T/C (dose: 200.0 mg/kg/injection, schedule: Q04DX003 (ip), vehicle: gum acacia): 95 % of control

Structure (SMILES): Cc1cc(OC(=O)Nc2cccc(Cl)c2)ccc1[N+](=O)[O-]
- T/C [9]: 93 % of control
- T/C (dose: 50.0 mg/kg/injection, schedule: Q04DX003 (ip), vehicle: Klucel (hydroxypropylcellulose) (HPC)): 100 % of control
- T/C [10]: 86 % of control
- T/C [19]: 100 % of control
- T/C [12]: 107 % of control

Structure (SMILES): O=c1[nH]cnc2c1cnn2-c1ccccc1
- T/C [10]: 90 % of control
- T/C [11]: 90 % of control
- T/C [13]: 103 % of control

Structure (SMILES): CCSCCNC(=O)[C@@]1(O)[C@H](O)[C@]2(CC)C=CCN3CC[C@@]4(c5cc([C@@]6(OC(C)=O)C[C@H]7C=C(CC)CN(CCc8c6[nH]c6ccccc86)C7)c(OC)cc5N(C)[C@@H]14)[C@@H]32
- T/C (dose: 0.13 mg/kg/injection, schedule: Q01DX009 (ip), vehicle: water): 100 % of control
- T/C (dose: 0.25 mg/kg/injection, schedule: Q01DX009 (ip), vehicle: water): 115 % of control
- T/C (dose: 0.5 mg/kg/injection, schedule: Q01DX009 (ip), vehicle: water): 120 % of control
- T/C (dose: 1.0 mg/kg/injection, schedule: Q01DX009 (ip), vehicle: water): 155 % of control
- T/C (dose: 2.0 mg/kg/injection, schedule: Q01DX009 (ip), vehicle: water): 162 % of control

Structure (SMILES): [Cl][Pt+2][Cl].[NH-]CC(=O)O.[NH-]CC(=O)O
- T/C [17]: 97 % of control
- T/C [18]: 92 % of control

Structure (SMILES): Cc1cc(OC(=O)c2ccc(N(C)C)cc2)ccc1[N+](=O)[O-]
- T/C [8]: 92 % of control
- T/C [9]: 92 % of control
- T/C [10]: 88 % of control

Structure (SMILES): O=C(Nc1ccccc1F)C(c1ccccc1)c1ccccc1
- T/C [16]: 101 % of control
- T/C [17]: 95 % of control
- T/C [18]: 95 % of control
- T/C [11]: 86 % of control

Structure (SMILES): CCOC(=O)C(NC(=O)C(Cc1ccc(N(CCCl)CCCl)cc1)NC(C)=O)C(C)C (centres undefined)
- T/C (dose: 1.56 mg/kg/injection, schedule: Q01DX009 (ip), vehicle: saline): 99 % of control
- T/C (dose: 3.13 mg/kg/injection, schedule: Q01DX009 (ip), vehicle: saline): 98 % of control
- T/C [1]: 102 % of control
- T/C (dose: 12.5 mg/kg/injection, schedule: Q04DX003 (ip), vehicle: saline): 105 % of control
- T/C (dose: 25.0 mg/kg/injection, schedule: Q04DX003 (ip), vehicle: saline): 97 % of control
- T/C (dose: 50.0 mg/kg/injection, schedule: Q04DX003 (ip), vehicle: saline): 102 % of control

Structure (SMILES): CC(=O)CC(=O)Nc1ccc(C)c(C)c1
- T/C [4]: 92 % of control
- T/C (dose: 200.0 mg/kg/injection, schedule: Q01DX009 (ip), vehicle: saline): 89 % of control
- T/C (dose: 400.0 mg/kg/injection, schedule: Q01DX009 (ip), vehicle: saline): 94 % of control

Structure (SMILES): CC/C(=C(/CC)c1ccc(O)cc1)c1ccc(O)cc1
- T/C [15]: 89 % of control
- T/C [16]: 89 % of control
- T/C [17]: 89 % of control and 102 % of control
- T/C [18]: 100 % of control
- T/C [20]: 97 % of control

Structure (SMILES): Cc1ccc(C(=O)/C(=C/c2ccccc2)c2ccccc2)cc1
- T/C [19]: 113 % of control
- T/C [12]: 113 % of control
- T/C [14]: 104 % of control

Structure (SMILES): CC(C)CC(NC(=O)C(C)NC(=O)CN)C(=O)O (stereo not drawn) (H-Gly-Ala-Leu-OH; configuration not given here)
- T/C [18]: 97 % of control
- T/C (dose: 100.0 mg/kg/injection, schedule: Q01DX009 (ip), vehicle: saline with Tween-80): 96 % of control
- T/C [20]: 98 % of control
- T/C (dose: 400.0 mg/kg/injection, schedule: Q01DX009 (ip), vehicle: saline with Tween-80): 103 % of control

Structure (SMILES): CCCC(=O)OCC1OC(n2cnc3c(=S)nc[nH]c32)C(OC(=O)CCC)C1OC(=O)CCC (centres undefined)
- T/C [17]: 105 % of control
- T/C [18]: 90 % of control

Structure (SMILES): O=C(O)C1C2CC(O)C(C2)C1C(=O)O (centres undefined)
- T/C (dose: 100.0 mg/kg/injection, schedule: Q04DX003 (ip), vehicle: saline): 100 % of control and 94 % of control
- T/C (dose: 200.0 mg/kg/injection, schedule: Q04DX003 (ip), vehicle: saline): 100 % of control and 91 % of control
- T/C (dose: 400.0 mg/kg/injection, schedule: Q04DX003 (ip), vehicle: saline): 94 % of control

Structure (SMILES): CCCCC(NC(=O)OC(C)(C)C)C(=O)O (centres undefined)
- T/C [10]: 114 % of control
- T/C [11]: 104 % of control
- T/C [13]: 100 % of control
